Test results as given in the NIST ThermoML archive (doi:10.1021/acs.jced.5b00934).

Settings: Liquid, Vibrating tube method

CCC(C)O (stereo not drawn) [butan-2-ol]
Settings	mass density [kg/m3]
303.15 K, 20032 kPa	813.3
303.15 K, 21980 kPa	814.6
303.15 K, 25089 kPa	816.7
303.15 K, 27989 kPa	818.6
303.15 K, 30014 kPa	819.9
303.15 K, 32951 kPa	821.7
303.15 K, 33007 kPa	821.7
303.15 K, 33998 kPa	822.3
303.15 K, 38048 kPa	824.8
303.15 K, 40020 kPa	826
303.15 K, 42004 kPa	827.1
303.15 K, 44999 kPa	828.9
303.15 K, 45386 kPa	829.1
303.15 K, 48182 kPa	830.7
303.15 K, 50063 kPa	831.8
303.15 K, 51975 kPa	832.8
303.16 K, 469 kPa	798.5
303.16 K, 7034 kPa	803.7
303.16 K, 9943 kPa	806
303.16 K, 11919 kPa	807.5
303.16 K, 15070 kPa	809.8
303.16 K, 31992 kPa	821.1
303.16 K, 35073 kPa	823
303.16 K, 55053 kPa	834.5
303.16 K, 57971 kPa	836.1
303.16 K, 59945 kPa	837.1
303.16 K, 62023 kPa	838.2
303.16 K, 64910 kPa	839.7
303.16 K, 66100 kPa	840.3
308.15 K, 99 kPa	793.9
308.15 K, 284 kPa	794.1
308.15 K, 499 kPa	794.3
308.15 K, 1030 kPa	794.8
308.15 K, 2012 kPa	795.6
308.15 K, 3016 kPa	796.4
308.15 K, 10011 kPa	802
308.15 K, 17937 kPa	808
308.15 K, 31948 kPa	817.5
308.15 K, 32957 kPa	818.2
308.15 K, 33017 kPa	818.2
308.15 K, 34003 kPa	818.8
308.15 K, 38001 kPa	821.3
308.15 K, 45022 kPa	825.5
308.15 K, 50010 kPa	828.4
308.15 K, 52016 kPa	829.5
308.15 K, 54994 kPa	831.2
308.15 K, 58005 kPa	832.8
308.15 K, 60029 kPa	833.9
308.16 K, 919 kPa	794.6
308.16 K, 5009 kPa	798.1
308.16 K, 7020 kPa	799.7
308.16 K, 9036 kPa	801.3
308.16 K, 11963 kPa	803.6
308.16 K, 15014 kPa	805.8
308.16 K, 19942 kPa	809.4
308.16 K, 22125 kPa	810.9
308.16 K, 25007 kPa	813
308.16 K, 28001 kPa	815
308.16 K, 30046 kPa	816.3
308.16 K, 35061 kPa	819.4
308.16 K, 40051 kPa	822.5
308.16 K, 41974 kPa	823.7
308.16 K, 47997 kPa	827.2
308.16 K, 61986 kPa	835
308.16 K, 64977 kPa	836.6
308.16 K, 66129 kPa	837.2
313.15 K, 97 kPa	789.4
313.15 K, 331 kPa	789.6
313.15 K, 521 kPa	789.8
313.15 K, 925 kPa	790.2
313.15 K, 1936 kPa	791
313.15 K, 2964 kPa	791.9
313.15 K, 10109 kPa	797.8
313.15 K, 12051 kPa	799.4
313.15 K, 22039 kPa	806.9
313.15 K, 24988 kPa	809
313.15 K, 27962 kPa	811
313.15 K, 30012 kPa	812.4
313.15 K, 32043 kPa	813.7
313.15 K, 33039 kPa	814.4
313.15 K, 33084 kPa	814.4
313.15 K, 37907 kPa	817.5
313.15 K, 42039 kPa	820
313.15 K, 50005 kPa	824.8
313.15 K, 58031 kPa	829.3
313.16 K, 1053 kPa	790.3
313.16 K, 5002 kPa	793.7
313.16 K, 6986 kPa	795.3
313.16 K, 8976 kPa	797
313.16 K, 14996 kPa	801.7
313.16 K, 17980 kPa	803.9
313.16 K, 20012 kPa	805.4
313.16 K, 34096 kPa	815
313.16 K, 35045 kPa	815.6
313.16 K, 40135 kPa	818.9
313.16 K, 45006 kPa	821.8
313.16 K, 48081 kPa	823.7
313.16 K, 52025 kPa	826
313.16 K, 55030 kPa	827.7
313.16 K, 60001 kPa	830.4
313.16 K, 62068 kPa	831.6
313.16 K, 65053 kPa	833.2
313.16 K, 66058 kPa	833.7
318.15 K, 102 kPa	784.8
318.15 K, 288 kPa	785
318.15 K, 909 kPa	785.5
318.15 K, 9293 kPa	792.8
318.15 K, 12039 kPa	795.1
318.15 K, 14977 kPa	797.4
318.15 K, 17998 kPa	799.8
318.15 K, 20024 kPa	801.3
318.15 K, 24907 kPa	804.9
318.15 K, 27973 kPa	807.1
318.15 K, 30001 kPa	808.5
318.15 K, 32873 kPa	810.4
318.15 K, 33033 kPa	810.4
318.15 K, 45210 kPa	818.3
318.15 K, 48072 kPa	820.1
318.15 K, 49996 kPa	821.2
318.15 K, 57926 kPa	825.8
318.16 K, 476 kPa	785.1
318.16 K, 1004 kPa	785.6
318.16 K, 1987 kPa	786.5
318.16 K, 3033 kPa	787.4
318.16 K, 5011 kPa	789.2
318.16 K, 6978 kPa	790.9
318.16 K, 10006 kPa	793.4
318.16 K, 22040 kPa	802.8
318.16 K, 32063 kPa	809.9
318.16 K, 33988 kPa	811.1
318.16 K, 34997 kPa	811.8
318.16 K, 38029 kPa	813.7
318.16 K, 39963 kPa	815
318.16 K, 42133 kPa	816.4
318.16 K, 51984 kPa	822.4
318.16 K, 54987 kPa	824.1
318.16 K, 60004 kPa	827
318.16 K, 62005 kPa	828.1
318.16 K, 65012 kPa	829.7
318.16 K, 66081 kPa	830.3
323.15 K, 539 kPa	780.5
323.15 K, 1027 kPa	781
323.15 K, 5007 kPa	784.7
323.15 K, 7056 kPa	786.5
323.15 K, 9085 kPa	788.3
323.15 K, 10245 kPa	789.3
323.15 K, 12118 kPa	790.8
323.15 K, 15027 kPa	793.2
323.15 K, 18033 kPa	795.6
323.15 K, 20133 kPa	797.2
323.15 K, 25015 kPa	800.9
323.15 K, 28096 kPa	803.1
323.15 K, 33113 kPa	806.7
323.15 K, 37980 kPa	809.9
323.15 K, 40058 kPa	811.2
323.15 K, 42026 kPa	812.5
323.15 K, 50034 kPa	817.5
323.15 K, 52055 kPa	818.7
